Where no end group is shown, it is not given here.
Experiments:
[1] = system: rats experimentally sensitised to ovalbumin; assay: Serum histamine after systemic allergen (ovalbumin) challenge of sensitised, peptide-immunised rats; assay type: in vivo, rat
Procedure: Groups of rats (male, Wistar) were hypersensitized by subcutaneous injection of a mixture (0.5 ml) of 0.5 ml chicken egg white (200 mg protein) and 2.5 ml Bordetella pertussis (40×10^10 organisms/ml)by a well-established experimental procedure (Jasani, B. and Stanworth, D. R., Journal of Immunologlcal Methods, 30, pp. 55-68 (1979)).
Repeat subcutaneous injections of the peptide-carrier protein conjugate mixed with incomplete Freund's adjuvant (IFA) were administered at days 14 and 21.
The effect of pre- or post-sensitisation immunisation with peptide (as described in section (b) above) on the state of hypersensitivity of rats which had been experimentally sensitised to ovalbumin (according to Example 5(a) above) was determined by the following procedure; similar investigations were carried out on non-immunised groups of rats as a control.
Animals from both the immunized and control groups were bled (from the tail vein) prior to systemic allergen challenge by intrapenal injection of ovalbumin (5 mg). The animals were sacrificed 10 min. later, whereupon a further sample of blood was obtained from their hearts. The histamine levels in serum from both pre-and post-allergen challenge blood samples were determined by a standard automated spectrofluorimetric procedure; the antibody profiles of the sera being determined by ELISA (according to Example 5(c) above).

[2] = system: rat peritoneal mast cells; parameters: dose or concentration left out as unconfirmed; conditions: concentration range; cited from earlier work
[3] = A: immunised with peptide (PPD conjugate) before experimental sensitisation
[4] = B: immunised with peptide (PPD conjugate) after experimental sensitisation

Substance	Histamine release (mean allergen-induced serum histamine level) [1, 3]	Histamine release (mean allergen-induced serum histamine level) [1, 4]	effect on allergen-induced histamine release ([1]; pre- or post-immunisation of experimentally sensitised rats)	non-cytolytic histamine release from rat peritoneal mast cells [2]
F57: non-histamine releasing analogue of F49 in which the N-terminal lysine residue is replaced by glycine (GYNGSNQRFFIF-NH2)	606 ng/mL	1159 ng/mL	no significant effect	
RKTKGSGFF [nonapeptide (sequence 496-504), human IgE Cε4 residues 496-504]				dose-dependent histamine release
KTKGSGFFVF [decapeptide (sequence 497-506), human IgE Cε4 residues 497-506]				dose-dependent histamine release
KTKGSGFF [octapeptide (sequence 497-504), human IgE Cε4 residues 497-504]				dose-dependent histamine release
Lys-Tyr-Asn-Gly-Ser-Asn-Gln-Arg-Phe-Phe-Ile-Phe-NH2 (KYNGSNQRFFIF-NH2) [F49, histamine releasing rat ε-chain dodecapeptide]	0 ng/mL	50 ng/mL		

From US5601821A, “Immunoactive peptides and antibodies and their use in anti-allergy treatment” (National Research Development Corporation, priority 1989, dated 1997)
